Test results taken from US20250129012A1, “ANTI-INFLAMMATORY AND ANALGESIC COMPOUNDS AND USE THEREOF” (JIANGSU ATOM BIOSCIENCE AND PHARMACEUTICAL CO., LTD., priority 2021, published 2025).
Marks after values point to notes of the source that are not given here.

Tests used:
[1] = test system: gouty arthritis rats (sodium urate, right ankle and knee joint cavities); test: Pharmacodynamics experiment B on gouty arthritis rats: gait score; format: in vivo, SD rats; settings: for Gait Score: mean
Outline: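 Male SD rats (180-220 g) received test compounds by gavage as 0.5% CMC-Na suspensions, once daily for 7 days before modeling and for 3 days afterward. Gouty arthritis was induced by injecting 0.2 mL sodium urate solution into the right ankle and knee joint cavities. Gait was graded 0-3 using modified Coderre criteria, and group mean scores were compared with the model group by ANOVA-Dunnett T-test (P<0.05).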

[2] = test system: novel coronavirus infection; settings: cited from earlier work
[3] = 4,159 patients with nasopharyngeal nucleic acid test

COc1cc2c(c(OC)c1OC)-c1ccc(OC)c(=O)cc1[C@@H](NC(C)=O)CC2 [colchicine, reference compound]
Gait Score ([1]; 2 h, dose 0.6 mg/kg gavage): 0
Gait Score ([1]; 2 h, dose 1.2 mg/kg gavage (high dose group)): 0
Gait Score ([1]; 4 h, dose 0.6 mg/kg gavage): 0.02*
Gait Score ([1]; 4 h, dose 1.2 mg/kg gavage (high dose group)): 0**
Gait Score ([1]; 8 h, dose 0.6 mg/kg gavage): 0.24*
Gait Score ([1]; 8 h, dose 1.2 mg/kg gavage (high dose group)): 0.1**
Gait Score ([1]; 10 h, dose 0.6 mg/kg gavage): 0.16**
Gait Score ([1]; 10 h, dose 1.2 mg/kg gavage (high dose group)): 0.18**
Gait Score ([1]; 24 h, dose 0.6 mg/kg gavage): 0.02*
Gait Score ([1]; 24 h, dose 1.2 mg/kg gavage (high dose group)): 0*
Gait Score ([1]; 48 h, dose 0.6 mg/kg gavage): 0.02
Gait Score ([1]; 48 h, dose 1.2 mg/kg gavage (high dose group)): 0
Gait versus model group, in words ([1]; compounds 0.6 mg/kg, colchicine 0.6 and 1.2 mg/kg): significantly improved the gait of rats
Reduction of hospital admissions [2, 3]: 25%
Reduction of need for respiratory equipment [2, 3]: 50%
Reduction of number of deaths [2, 3]: 44%
Lower risk of hospitalization or death compared with placebo ([2]; 4,488 non-hospitalized patients): 21%
